Read-outs that look alike come from different tables or passages of the source.
Key:
CYP-3A4 = CYP-3A4 (Homo sapiens, UniProt P08684); test: CYP test: inhibition of cytochrome P450 isoenzymes by excipients; format: biochemical
CYP-2C19 = CYP-2C19 (Homo sapiens, UniProt P33261); test: as above; format: biochemical
CYP-2C9 = CYP-2C9 (Homo sapiens, UniProt P11712); test: as above; format: biochemical
[1] = human, cited from earlier work
[2] = human; oral paclitaxel with simultaneous cyclosporin (Pgp inhibitor); cited from earlier work
[3] = rats; paclitaxel oral 30 min after oral morin; cited from earlier work
[4] = concentration of excipient at which 50 % of the isoenzyme is inhibited

Sequence of CYP-2C19 (P33261 whole entry): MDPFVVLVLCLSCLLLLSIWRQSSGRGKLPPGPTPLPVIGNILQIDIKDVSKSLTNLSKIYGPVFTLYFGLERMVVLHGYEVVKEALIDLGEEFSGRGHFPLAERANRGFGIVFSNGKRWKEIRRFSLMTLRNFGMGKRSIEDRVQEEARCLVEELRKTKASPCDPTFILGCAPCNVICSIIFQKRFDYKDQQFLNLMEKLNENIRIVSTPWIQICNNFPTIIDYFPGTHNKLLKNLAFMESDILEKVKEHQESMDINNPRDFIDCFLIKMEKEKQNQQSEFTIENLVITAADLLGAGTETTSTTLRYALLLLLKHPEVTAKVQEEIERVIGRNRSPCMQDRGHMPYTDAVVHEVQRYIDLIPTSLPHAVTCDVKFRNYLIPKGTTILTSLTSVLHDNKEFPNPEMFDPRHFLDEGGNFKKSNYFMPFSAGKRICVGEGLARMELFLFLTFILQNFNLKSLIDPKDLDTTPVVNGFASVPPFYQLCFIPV
Sequence of CYP-2C9 (P11712 whole entry): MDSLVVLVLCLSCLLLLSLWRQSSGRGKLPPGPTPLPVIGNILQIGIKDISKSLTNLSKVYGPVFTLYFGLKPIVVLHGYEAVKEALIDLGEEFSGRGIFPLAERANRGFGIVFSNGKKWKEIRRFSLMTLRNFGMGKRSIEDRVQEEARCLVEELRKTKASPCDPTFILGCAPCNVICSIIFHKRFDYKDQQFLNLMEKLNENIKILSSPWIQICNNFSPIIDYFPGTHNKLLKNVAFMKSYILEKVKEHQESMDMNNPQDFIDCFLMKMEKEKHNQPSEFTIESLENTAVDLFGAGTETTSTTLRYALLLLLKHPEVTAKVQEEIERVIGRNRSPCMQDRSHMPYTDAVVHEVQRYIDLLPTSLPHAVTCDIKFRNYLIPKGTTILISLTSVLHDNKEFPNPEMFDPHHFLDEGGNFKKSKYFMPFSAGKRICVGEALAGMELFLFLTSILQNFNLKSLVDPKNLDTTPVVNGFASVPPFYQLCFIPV
Sequence of CYP-3A4 (P08684 whole entry): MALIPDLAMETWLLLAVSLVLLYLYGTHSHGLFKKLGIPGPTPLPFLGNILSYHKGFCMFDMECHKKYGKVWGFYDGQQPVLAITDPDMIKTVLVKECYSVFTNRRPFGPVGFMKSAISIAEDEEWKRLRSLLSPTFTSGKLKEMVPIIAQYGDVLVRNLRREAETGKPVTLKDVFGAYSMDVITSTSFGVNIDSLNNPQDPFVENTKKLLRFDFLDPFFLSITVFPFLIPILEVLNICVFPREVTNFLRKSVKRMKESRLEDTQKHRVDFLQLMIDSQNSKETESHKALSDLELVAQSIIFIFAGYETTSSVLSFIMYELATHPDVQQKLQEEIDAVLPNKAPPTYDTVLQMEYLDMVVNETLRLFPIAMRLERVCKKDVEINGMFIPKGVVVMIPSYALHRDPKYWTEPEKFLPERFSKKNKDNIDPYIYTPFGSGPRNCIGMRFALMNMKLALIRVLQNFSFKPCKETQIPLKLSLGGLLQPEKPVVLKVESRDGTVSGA

Glycerolmonocaprylat [Imwitor®308]
IC50, µg/ml CYP-3A4 (CYP-3A4; [4]): 29 µg/mL | IC50, µg/ml CYP-2C19 (CYP-2C19; [4]): 6,9 µg/ml | IC50, µg/ml CYP-2C9 (CYP-2C9; [4]): 5,0 µg/ml

CCOCCOCCO [Transcutol®P, Ethoxydiglycol]
IC50 (CYP-3A4; concentration of excipient at which 50 % of the isoenzyme is inhibited, read-out: IC50, µg/ml CYP-3A4 (converted)): 5.63 mM | IC50 (CYP-2C19; concentration of excipient at which 50 % of the isoenzyme is inhibited, read-out: IC50, µg/ml CYP-2C19 (converted)): 10.4 mM | IC50 (CYP-2C9; concentration of excipient at which 50 % of the isoenzyme is inhibited, read-out: IC50, µg/ml CYP-2C9 (converted)): 11.2 mM

C#C[C@]1(O)CC[C@H]2[C@@H]3CCc4cc(O)ccc4[C@H]3CC[C@@]21C [Ethinylestradiol]
Anteil des beobachteten First-Pass-Effekts durch direkte Konjugation (vor allem Sulfatierung in der Darmwand) ([1]; gut wall): 65% | humane absolute Bioverfügbarkeit ([1]; oral): ~45%

CCCCCCCC/C=C\CCCCCCCC(=O)OCC [Ethyloleat]
IC50 (CYP-3A4): 0.377 mM | IC50 (CYP-2C19): 1.05 mM | IC50 (CYP-2C9): 0.628 mM

CC(=O)O[C@H]1C(=O)[C@@]2(C)[C@H]([C@H](OC(=O)c3ccccc3)[C@]3(O)C[C@H](OC(=O)[C@H](O)[C@@H](NC(=O)c4ccccc4)c4ccccc4)C(C)=C1C3(C)C)[C@]1(OC(C)=O)CO[C@@H]1C[C@@H]2O [Paclitaxel]
Bioverfügbarkeit erhöht um Faktor [2]: 9 | Erhöhung der AUC [3]: ≤ 70%

From patent EP2127643A1, “Oral pellet composition with time-delayed release” (Bayer Schering Pharma Aktiengesellschaft, priority 2008, dated 2009)
